Data published in patent publication US20130281497A1, “MACROCYCLIC COMPOUNDS AND METHODS OF TREATMENT” (University of Florida Research Foundation, Inc., priority 2010, published 2013).
Marks after values point to notes of the source that are not given here.

Columns and labels:
C2C12 cells = assay: mRNA induction of osteoblastogenesis markers and BMPs by quantitative real-time PCR; assay type: cell-based; conditions: for ALP mRNA level, fold change relative to the control / BMP-2 mRNA level, fold change relative to the control / BMP-4 mRNA level, fold change relative to the control / BMP-6 mRNA level, fold change relative to the control / BMP-7 mRNA level, fold change relative to the control / BMP-9 mRNA level, fold change relative to the control / OPN mRNA level, fold change relative to the control / RUNX2 mRNA level, fold change relative to the control: 6 days, C2C12 cells, mean ± SD
Procedure: Primers were designed using an on-line primer design program (Table 1). (S. Rozen, H. J. Skaletsky, Methods Mol. Biol. 2000, 132, 365-386.) Total RNA was isolated using TRIzol reagent (Life Technologies, MD) according to manufacturer's protocol. The concentration and purity of total RNA were calculated by measuring absorbance at 260 and 280 nm. First strand cDNA was synthesized using 2 μg of total RNA and 1 μM of oligo-dT18 primer and Omniscript Reverse Transcriptase (Qiagen, CA). SYBR green-based quantitative PCR was performed using the Stratagene Mx3000P Real-Time PCR system and Brilliant SYBR Green Master Mix (Stratagene, CA) with 3 μl of first-strand cDNA diluted 1:50 and 20 pmole of primers, according to the manufacturer's protocols. The PCR reaction consisted of three segments. The first segment (95° C. for 10 min) activated the polymerase; the second segment included 3-step cycling (40 cycles) at 94° C. for 40 sec (denaturation), 60° C. for 40 sec (annealing), and 72° C. for 1 min (extension); the third segment was performed to generate PCR product temperature dissociation curves (‘melting curves’) at 95° C. for 1 min, 55° C. for 30 sec, 95° C. for 30 sec. All reactions were run in triplicate, and data were analyzed by the 2^−ΔΔCT method (K. J. Livak, T. D. Schmittgen, Methods 2001, 25, 402-408.). GAPDH was used as the control gene. Significance was determined by Student's t-test with GAPDH-normalized 2^−ΔΔCT values. Differences were considered significant when P<0.05.

Runx2 = Runx2 luciferase reporter assay (p6xOSE2-luc); assay type: cell-based
Procedure: FIG. 1. depicts activity of compound I (LA-1) and compound 8 (LA-3) on osteoblast differentiation. FIG. 1: (A) The effects of test compounds (up to 500 nM) on osteoblast differentiation were evaluated by ALP staining. (B) The effect of test compounds (up to 50 nM) on osteoblast differentiation were evaluated by ALP staining. MS-275 was used as a positive control. The effects of test compounds on cell viability (C) and RUNX2 activity (D) were evaluated by CCK-8 assay and 6×OSE2-luciferase activity assay, respectively.
To measure Runx2 activity, p6×osteoblast-specific cis-acting element (OSE) 2-luc reporter vector was transiently transfected into C2C12 cells that were seeded in a 96-well plate at 5×10^3 cells/well as described previously (Kim et al., J. Cell Biochem. 2004, 9, 1239-1247). After 24 h, medium was replaced with DMEM containing 5% FBS with or without tanshinone IIA and/or BMP-2. After 24 h, the cells were lysed, and luciferase activity was measured using luciferase reporter assay system (Promega) and the Wallac EnVision microplate reader.

calvaria bone = assay: In vivo bone regeneration model (calvaria bone defects); set-up: species or system rabbits
Procedure: All rabbits are anesthetized with an intramuscular dose of 0.1 ml/kg Zoletil (Virbac, France). The head is shaved, and the cutaneous surface is disinfected with povidone iod solution prior to the operation. The calvaria bone is exposed through a skin incision of ˜4 cm in length. Four similar circular bicortical defects (3-mm diameter) are made in the parietal bone using a trephine on a slow-speed electric handpiece, applying 0.9% physiologic saline irrigation. Defects are filled with 10 mg of bone graft substitute, MBCP (Biomatlante, France) soaked with 50 μl of PBS or LA-1. Closure of periosteum and subcutaneous tissues is done with lactomer (Syneture), while the skin is relocated with nylon:polyamide (Syneture). Postoperative antibiotics are administered, e.g., Gentamycin. Rabbits are sacrificed at 4 weeks after surgery.

RAW264.7 cells = assay: Osteoclastogenesis (RANKL-induced TRAP activity, multinucleated osteoclasts); assay type: cell-based
Procedure: FIG. 2 depicts activity of compound I (LA-1) and compound 8 (LA-3) on osteoclastogenesis. FIG. 2: (A) Effects of test compounds on the RANKL-induced TRAP activity. (B) Effects of test compounds on the RANKL-induced formation of TRAP-positive multinucleated osteoclasts. Effects of test compounds on osteoclast differentiation was evaluated in RAW264.7 cells. RAW264.7 cells were plated in 96-well plates at the density 1×10^3 and then serially diluted LA compounds were treated and incubated until multinucleated osteoclasts were observed under a microscope.
RAW264.7 cells were purchased from the ATCC and maintained in DMEM supplemented with 10% FBS, 100 U/ml of penicillin, and 100 μg/ml streptomycin with a change of medium every 3 days in humidified atmosphere of 5% CO2 in air at 37° C. For the osteoclast differentiation, RAW264.7 cells were suspended in α-minimal essential medium (α-MEM) supplemented with 10% FBS and 100 ng/ml RANKL (R&D Systems Inc., MN) and plated in a 96-well plate at 1×10^3 cells/well. The next day, cells were treated with largazole and then after an additional 3 days, multinucleated osteoclasts were observed.
Multinucleated osteoclasts were fixed with 10% formalin for 10 min and ethanol/acetone (1:1) for 1 min, and then stained by Leukocyte Acid Phosphatase Kit 387-A (Sigma, Mo.). […] Absorbance was measured at 410 nm, and TRAP activity was presented as % of control. […]

calvarial bones of mice = assay: In vivo murine calvarial bone formation assay
Procedure: In vivo bone-forming activity of largazole was evaluated using lyophilized collagen sponges as described previously. […] Three weeks after drug implantation, the calvarias were harvested, fixed in 4% paraformaldehyde, decalcified in 12% EDTA, embedded in paraffin, and sectioned. Sections were deparaffinized through graded xylene washes, […] in a graded series of ethanol washes, and stained with hematoxylin and eosin (H&E).

SMILES: CCCCCCCC(=O)SCC/C=C/[C@@H]1CC(=O)NCc2nc(cs2)C2=N[C@@](C)(CS2)C(=O)N[C@@H](C(C)C)C(=O)O1 [Largazole, largazole]
- ALP mRNA level, fold change relative to the control (C2C12 cells; largazole 1 nM): 1.85 ± 0.06^a fold
- BMP-2 mRNA level, fold change relative to the control (C2C12 cells; largazole 1 nM): 2.15 ± 0.42^b fold
- BMP-4 mRNA level, fold change relative to the control (C2C12 cells; largazole 1 nM): 0.91 ± 0.22 fold
- BMP-6 mRNA level, fold change relative to the control (C2C12 cells; largazole 1 nM): 1.69 ± 0.12^b fold
- BMP-7 mRNA level, fold change relative to the control (C2C12 cells; largazole 1 nM): 5.05 ± 0.31^c fold
- BMP-9 mRNA level, fold change relative to the control (C2C12 cells; largazole 1 nM): 5.18 ± 0.74^c fold
- OPN mRNA level, fold change relative to the control (C2C12 cells; largazole 1 nM): 1.33 ± 0.19 fold
- RUNX2 mRNA level, fold change relative to the control (C2C12 cells; largazole 1 nM): 2.47 ± 0.39^b fold
- ALP mRNA level, fold change relative to the control (C2C12 cells; largazole 50 nM): 324.04 ± 1.59^c fold
- BMP-2 mRNA level, fold change relative to the control (C2C12 cells; largazole 50 nM): 6.29 ± 0.98^c fold
- BMP-4 mRNA level, fold change relative to the control (C2C12 cells; largazole 50 nM): 2.38 ± 0.91^a fold
- BMP-6 mRNA level, fold change relative to the control (C2C12 cells; largazole 50 nM): 7.15 ± 1.33^b fold
- BMP-7 mRNA level, fold change relative to the control (C2C12 cells; largazole 50 nM): 17.12 ± 2.59^c fold
- BMP-9 mRNA level, fold change relative to the control (C2C12 cells; largazole 50 nM): 12.14 ± 3.17^b fold
- OPN mRNA level, fold change relative to the control (C2C12 cells; largazole 50 nM): 2.28 ± 0.12^b fold
- RUNX2 mRNA level, fold change relative to the control (C2C12 cells; largazole 50 nM): 3.66 ± 1.19^a fold
- ALP mRNA level, fold change relative to the control (C2C12 cells; largazole 100 nM): 263.33 ± 11.61^b fold
- BMP-2 mRNA level, fold change relative to the control (C2C12 cells; largazole 100 nM): 6.34 ± 1.16^b fold
- BMP-4 mRNA level, fold change relative to the control (C2C12 cells; largazole 100 nM): 3.48 ± 1.63 fold
- BMP-6 mRNA level, fold change relative to the control (C2C12 cells; largazole 100 nM): 8.37 ± 0.88^c fold
- BMP-7 mRNA level, fold change relative to the control (C2C12 cells; largazole 100 nM): 10.72 ± 1.90^c fold
- BMP-9 mRNA level, fold change relative to the control (C2C12 cells; largazole 100 nM): 10.18 ± 2.22^b fold
- OPN mRNA level, fold change relative to the control (C2C12 cells; largazole 100 nM): 0.83 ± 0.04^a fold
- RUNX2 mRNA level, fold change relative to the control (C2C12 cells; largazole 100 nM): 2.06 ± 0.00^c fold
- increase of Runx2 mRNA level relative to the DMSO control (C2C12 cells; largazole at 50 nM, real-time PCR): 3 fold
- mRNA expression levels of BMPs (BMP-2, 4, 6, 7, and 9) (C2C12 cells; real-time PCR): significantly induced
- activity of RUNX2 (6×OSE2-luciferase activity assay) (Runx2; FIG. 1D): strongly induced the activity of RUNX2
- increase of Runx2 activity relative to the DMSO control (Runx2; largazole at 50 nM, p6×OSE2-luciferase reporter): 29 fold
- anabolic bone forming activity in vivo (calvaria bone): exhibited anabolic bone forming activity
- inhibition of osteoclastogenesis (RAW264.7 cells): potential to inhibit the osteoclastogenesis
- woven bone formation at lower (50 μM) versus higher (100 μM) concentration (calvarial bones of mice; 50 μM compared with 100 μM, collagen sponge implant): more significant than that at the higher concentration
- woven bone formation over the periosteum of the calvarial bones (calvarial bones of mice; collagen sponges soaked with largazole implanted, three weeks): induced woven bone formation
